PMC12344719 (Journal of Chemical Information and Modeling, 2025)
Like-named read-outs stand apart in the source and are kept apart here.

Legend:
Vero cells [1] = conditions: African green monkey (Cercopithecus aethiops)
in vitro = conditions: African green monkey (Cercopithecus aethiops)
[2] = set-up: method as in Liu et al.; conditions: ref Liu et al.; cited from earlier work
Vero cells [3] = tested on: Vero cells; set-up: method as in Yang et al.; conditions: 72 h condition without hypoxia, ref Yang et al.; cited from earlier work
[4] = toxicological studies in animals; cited from earlier work
SARS-CoV-2 [5] = assay type: cell-based
SARS-CoV-2 [6] = test: microbe, parasite or virus in culture; assay type: cell-based
SARS-CoV-2 Mpro = conditions: cited from earlier work

C=CCNC(=O)c1csc(-c2ccc(OCCC)cc2F)n1 [MolPort-006-606-981]
CC20 (Vero cells [1]): 3.964 µM
CC50 (in vitro): 19.4 µM

CCN(CCO)CCCC(C)Nc1ccnc2cc(Cl)ccc12 (stereo not shown) [hydroxychloroquine]
CC50 [2]: 250 µM
CC50 (Vero cells [3]): 56.2 µM
less toxic than chloroquine [4]: approximately 40%

COc1cccc(SCC(=O)N(Cc2ccccn2)C2CCCCC2)c1 [MolPort-045-920-671]
CC20 (Vero cells [1]; 72 h): 2.772 µM
CC50 at 72 h (in vitro): 16.1 µM

CCOc1ccc2nc(C(=O)CCC(=O)OC(CCl)CCl)sc2c1 [MolPort-004-953-083]
CC20 (Vero cells [1]; 72 h): 29.30 µM
CC50 at 72 h (in vitro): 45.5 µM

Cc1cccc(C)c1NC(=O)CCCSCc1cccc(S(=O)(=O)N(C)C)c1 [MolPort-005-766-143]
CC20 (Vero cells [1]; 72 h): 3.532 µM
CC50 at 72 h (in vitro): 15.7 µM

CCN(CC)CCCC(C)Nc1ccnc2cc(Cl)ccc12 (stereo not shown) [chloroquine]
CC50 [2]: 273 µM
CC50 (Vero cells [3]): 92.4 µM

CC(=O)c1[nH]c(C)c(C(=O)N(C)CCCOc2cccc(Cl)c2)c1C [MolPort-046-186-743]
CC20 (Vero cells [1]; 72 h): 7.583 µM
CC50 at 72 h (in vitro): 27.6 µM

CN(CCCCCc1cc(-c2cccc(F)c2)n[nH]1)C(=O)C(C)(C)C [MolPort-009-093-282]
CC20 (Vero cells [1]): 9.418 µM
CC50 (in vitro): 47.1 µM

CCS(=O)(=O)N(C)c1ccc2sc(C(=O)NCCC3=CCCCC3)cc2c1 [MolPort-010-778-422]
CC20 (Vero cells [1]; 72 h): 2.258 µM
log reduction (viral titer) (SARS-CoV-2 [5]): 5.6 log
SI (selectivity index) (SARS-CoV-2 [6]): 569.9
IC50 (SARS-CoV-2 [6]; Severe acute respiratory syndrome coronavirus 2, Vero, 2 h): 0.0089 µM
CC50 at 72 h (in vitro): 5.07 µM

O=C[C@H](C[C@@H]1CCNC1=O)NC(=O)[C@H](Cc1cccc(F)c1)NC(=O)c1cc2ccccc2[nH]1 [11b]
IC50 (SARS-CoV-2 Mpro): 0.04 µM

COc1ccccc1OCCCOc1ccc([N+](=O)[O-])cc1Cl [MolPort-002-201-288]
CC20 (Vero cells [1]): 3.031 µM
CC50 (in vitro): 20.6 µM
